# Where two headings read alike, the source gives them in different places. Numbered stars: 1 amine (or outer) side, 2 acyl side, 3 side chain; on linkers, the order of the positions; unused ones are H or OH. Square brackets hold non-standard residues; d marks the D form. Side chains are listed from the residue outwards. * marks the point of attachment. C20 diacid = O=C(O)CCCCCCCCCCCCCCCCCCC(=O)*; C18 diacid = O=C(O)CCCCCCCCCCCCCCCCC(=O)*; C16 diacid = O=C(O)CCCCCCCCCCCCCCC(=O)*; γGlu = O=C(O)[C@H](CCC(=O)[*:2])N[*:1]; AEEA = NCCOCCOCC(=O)O; Aib = CC(C)(N)C(=O)O
# How the values were obtained:
# [1] = molecular target: T1, human amylin receptor (hAMYR3) (Homo sapiens, UniProt O60896+P30988); test: Amylin receptor assay, method A (CRE-luciferase reporter, BHK cells); assay type: cell-based
# T1 construct: host or cells: BHK cells (Hollex-1 line expressing hCTR(a) and CRE-Luc), further transfected with human RAMP3
# T1 sequence (P30988 25-474): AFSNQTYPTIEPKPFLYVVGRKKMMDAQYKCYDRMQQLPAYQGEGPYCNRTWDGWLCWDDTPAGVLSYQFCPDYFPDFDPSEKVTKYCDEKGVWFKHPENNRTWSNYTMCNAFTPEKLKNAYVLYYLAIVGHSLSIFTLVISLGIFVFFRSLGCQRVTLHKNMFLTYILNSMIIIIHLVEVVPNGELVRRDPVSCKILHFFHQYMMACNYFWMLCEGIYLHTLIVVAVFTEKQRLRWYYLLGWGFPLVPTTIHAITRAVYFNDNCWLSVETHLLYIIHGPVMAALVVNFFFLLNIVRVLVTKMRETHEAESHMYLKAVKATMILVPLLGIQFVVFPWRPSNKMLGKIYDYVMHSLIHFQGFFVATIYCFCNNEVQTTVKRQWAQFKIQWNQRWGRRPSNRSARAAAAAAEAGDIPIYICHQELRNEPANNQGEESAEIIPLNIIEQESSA
# T1 sequence (O60896 24-148): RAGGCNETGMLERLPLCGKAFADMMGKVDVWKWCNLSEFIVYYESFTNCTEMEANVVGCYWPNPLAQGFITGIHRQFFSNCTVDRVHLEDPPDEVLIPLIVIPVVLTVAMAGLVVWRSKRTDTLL
# [2] = molecular target: T2, human GLP-1 receptor (hGLP-1R) (Homo sapiens, UniProt P43220); test: GLP-1 receptor assay, method A (CRE-luciferase reporter, BHK cells); assay type: cell-based
# T2 construct: expressed in transfected cells
# T2 sequence (P43220 24-463): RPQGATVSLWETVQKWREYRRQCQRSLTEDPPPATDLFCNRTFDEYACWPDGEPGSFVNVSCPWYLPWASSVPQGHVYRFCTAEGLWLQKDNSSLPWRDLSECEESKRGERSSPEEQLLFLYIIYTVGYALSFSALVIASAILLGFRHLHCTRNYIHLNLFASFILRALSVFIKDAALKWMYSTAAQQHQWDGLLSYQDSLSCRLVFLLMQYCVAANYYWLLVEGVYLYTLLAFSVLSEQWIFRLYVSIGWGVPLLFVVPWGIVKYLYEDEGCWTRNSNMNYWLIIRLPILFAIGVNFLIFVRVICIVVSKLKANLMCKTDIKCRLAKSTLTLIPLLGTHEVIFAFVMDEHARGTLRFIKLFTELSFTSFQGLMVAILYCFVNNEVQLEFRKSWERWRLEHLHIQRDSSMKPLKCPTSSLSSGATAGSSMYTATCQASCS
# In short: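 BHK cells expressing hGLP-1R with a CRE-luciferase reporter were thawed from frozen stocks and exposed to compound for 3 hours at 37° C in 5% CO2. The assay buffer was phenol red-free DMEM with 10 mM HEPES, 1% (w/v) ovalbumin and 0.1% Pluronic F-68, with or without 1% (w/v) HSA.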
# [3] = tested on: Male Sprague Dawley (SD) rats; test: Efficacy testing on appetite: acute food intake in ad libitum fed normal weight rats; assay type: in vivo, rat; details: for Food intake (relative to vehicle) Day 1: day 1 [0-24 hours]; for Food intake (relative to vehicle) Day 2: day 2 [24-48 hours]; for Food intake (relative to vehicle) Day 3: day 3 [48-72 hours]
# Excerpt: Male Sprague Dawley (SD) rats from Taconic, Denmark were used for the acute food intake experiments, wherein the principles of laboratory animal care were followed.
# The rats arrived at least 10-14 days before the start of the experiment to allow acclimatization to experimental settings. During this period, the animals were handled (fixation by restrain in neck skin) at least 2 times. Immediately upon arrival, rats were changed to a reversed light cycle (dark from 11 am-11 pm) and were transferred to an automated food intake measuring system (HM2 system, MBRose; Faaborg, Denmark). […] To enable recording of individual food intake, rats were ID chipped. Three rats were housed in each cage. During the acclimatization period, in which the rats get used to the new light cycle and diet (LF 10% (D12450B), from Research Diets Inc.), the animals had free access to food and water. Since rats are normally active and consume most of their daily calories during the dark period, rats were dosed in the morning right before lights were turned off. Such a set-up results in the lowest data variation and highest test sensitivity. […] In each cage there were animals from three different treatment groups (to eliminate potential cage effects (e.g. cage malfunction) on primary readout: food intake). The rats were dosed once subcutaneously (s.c.) with the peptide of interest according to body weight (10 or 30 nmol/kg) in vehicle (0.5 ml/kg) using a NovoPen® (Novo Nordisk, Bagsvæed, Denmark).
# The compounds of the invention were formulated (20 or 60 nmol/ml) in the following vehicle: 8 mM phosphate; 250 mM glycerol; 0.007% polysorbate 20, pH 7.4.
# After dosing, the rats were returned to their home cages, where they continued to have ad libitum access to chow and water. The food consumption was recorded individually and continuously by the HM2 system from 0-72 h after test compound administration. Data obtained by the HM-2 system were stored in a HMBase SQL database (Firebird® relational database management system) and were processed by HM2Lab software (MBRose; Faaborg, Denmark) installed in an embedded computer. The feeding system is a highly sensitive system with a load resolution of 0.001 g.
# [4] = hAMYR3 Potency, 1% HSA, EC50, method A, in the presence of 1% HSA
# [5] = method A, absence of HSA, read-out: hAMYR3 Potency, no HSA, EC50
# [6] = hGLP-1R Potency, 1% HSA, EC50, method A, in the presence of 1% HSA
# [7] = method A, absence of HSA, read-out: hGLP-1R Potency, no HSA, EC50
Substance,"EC50 [1, 4] [nM]","EC50 [1, 5] [nM]","EC50 [2, 6] [nM]","EC50 [2, 7] [nM]",Food intake (relative to vehicle) Day 1 ([3]; single dose 10 nmol/kg) [%],Food intake (relative to vehicle) Day 2 ([3]; single dose 10 nmol/kg) [%],Food intake (relative to vehicle) Day 3 ([3]; single dose 10 nmol/kg) [%],Food intake (relative to vehicle) Day 1 ([3]; single dose 30 nmol/kg) [%],Food intake (relative to vehicle) Day 2 ([3]; single dose 30 nmol/kg) [%],Food intake (relative to vehicle) Day 3 ([3]; single dose 30 nmol/kg) [%],"EC50 ([1]; hAMYR3 Potency, no HSA, EC50, method A, absence of HSA) [nM]","EC50 ([2]; hGLP-1R Potency, no HSA, EC50, method A, absence of HSA) [nM]"
Y[Aib]EGTFTSDYSILLEEQAAREFIEWLLAGGPSSGAGQAPGQAPGASHLSTAQTQRLSAELHRLK([AEEA-AEEA-γGlu-C18 diacid])TLPRTETGSGSP-NH2 [Compound 56],0.0449,0.00236,0.0584,0.0182,−69,−77,−10,–,–,–,–,–
Y[Aib]EGTFTSDYSILLEEQAAREFIEWLLAGGPSK([AEEA-AEEA-γGlu-C18 diacid])GEASHLSTAQTARLSAELHELATLPRTETGSGSP-NH2 [Compound 35],–,0.00421,–,0.0233,–,–,–,−42,−18,−16,–,–
Y[Aib]EGTFTSDYSILLEEQAAREFIEWLLAGGPSSGAGQAPGASHLSTAQTQRLSAELHK([AEEA-AEEA-γGlu-C18 diacid])LATLPRTETGSGSP-NH2 [Compound 97],0.132,0.00281,0.109,0.0161,−65,−82,−42,–,–,–,–,–
Y[Aib]EGTFTSDYSILLEEQAAREFIEWLLAGGPSSGAGQAPGQAPLASHLSTAQTQRLSAELHK([AEEA-AEEA-γGlu-C18 diacid])LATLPRTETGSGSP-NH2 [compound 58],0.134,0.00291,0.0256,0.0127,–,–,–,–,–,–,–,–
H[Aib]HGTFTSDYSILLEEQAAREFIEWLLAGGPSSGAGQAPGQAPLASHLSTAQTQRLSAELHK([AEEA-AEEA-γGlu-C18 diacid])LATLPRTETGSGSP-NH2 [Compound 93],0.0664,0.00223,0.0164,0.00411,−94,−61,−25,–,–,–,–,–
Y[Aib]EGTFTSDYSILLEEQAAREFIEWLLAGGPSRGEASHLSTAQTQRLSAELHK([AEEA-AEEA-γGlu-C18 diacid])LATLPRTETGSGSP-NH2 [compound 68],0.23,0.00257,0.0519,0.0121,–,–,–,–,–,–,–,–
Y[Aib]EGTFTSDYSILLEEQAAREFIEWLLAGGPSSGAGQAPGQAPGASHLSTAALGRLSAELHK([AEEA-AEEA-γGlu-C18 diacid])LATLPRTETGSGSP-NH2 [Compound 53],0.0759,0.00322,0.0792,0.0233,−75,−90,−33,–,–,–,–,–
H[Aib]HGTFTSDYSILLEEQAAREFIEWLLAGGPSK([AEEA-AEEA-γGlu-C16 diacid])GEASQLSTAALGRLSAELHRLADLPRTETGSGSP-NH2 [Compound 62],0.0288,–,0.0115,–,−74,−42,−13,–,–,–,0.00335,0.00413
Y[Aib]EGTFTSDYSILLEEQAAREFIEWLLAGGPSSGEASHLSTAQTQRLSAK([AEEA-AEEA-γGlu-C18 diacid])LHRLATLPRTETGSGSP-NH2 [Compound 79],0.0534,0.00353,0.168,0.0387,−70,−54,−5,–,–,–,–,–
Y[Aib]EGTFTSDYSILLEEQAAREFIEWLLAGGPSSGALQAPGQAPLASHLSTAQTQRLSAELHK([AEEA-AEEA-γGlu-C20 diacid])LATLPRTETGSGSP-NH2 [Compound 99],0.129,0.00282,0.0362,0.0167,−69,−84,−46,–,–,–,–,–
Y[Aib]EGTFTSDYSILLEEQAAREFIEWLLAGGPSK([AEEA-AEEA-γGlu-C16 diacid])GEASELSTAALGRLSAELHELATLPRTETGSGSP-NH2 [Compound 11],0.211,0.0128,0.204,0.0104,–,–,–,−46,−45,−27,–,–
Y[Aib]EGTFTSDYSILLEEQAAREFIEWLLAGGPSSGAGQAPGQAPGASHLSTAQTQRLSAK([AEEA-AEEA-γGlu-C18 diacid])LHRLATLPRTETGSGSP-NH2 [compound 55],0.034,0.00222,0.0453,0.023,–,–,–,–,–,–,–,–
H[Aib]HGTFTSDYSILLEEQAAREFIEWLLAGGPSK([AEEA-AEEA-γGlu-C18 diacid])GEASQLSTAALGRLSAELHQLATLPRTETGSGSP-NH2 [Compound 64],0.109,0.00191,0.0678,0.00371,–,–,–,–,–,–,–,–
Y[Aib]EGTFTSDYSILLEEQAAREFIEWLLAGGPSSGAGQAPGQAPGASHLSTAQTQRLSAELHK([AEEA-AEEA-γGlu-C20 diacid])LATLPRTETGSGSP-NH2 [Compound 115],–,–,–,–,−44.5,−76.5,−38,–,–,–,–,–
H[Aib]HGTFTSDYSILLEEQAAREFIEWLLAGGPSK([AEEA-AEEA-γGlu-C18 diacid])GAPPPSGGGEASHLSTAQTARLSAELHQLATLPRTETGSGSP-NH2 [compound 101],0.0955,0.00308,0.179,0.00324,–,–,–,–,–,–,–,–
Y[Aib]EGTFTSDYSILLEEQAAREFIEWLLAGGPSSGAGQAPGQAPGASHLSTAQTQRLSAELHK([AEEA-AEEA-γGlu-C18 diacid])LATLPRTETGSGSP-NH2 [compound 52],0.119,0.00285,0.0269,0.011,–,–,–,–,–,–,–,–

# From patent publication US20260174875A1 (Novo Nordisk A/S, priority 2023, published 2026)
